Patent publication US20230114728A1 (Venatorx Pharmaceuticals, Inc., priority 2019, published 2023)
≈ marks a conversion by molar mass, not a printed value.

Legend:
E. coli K12 PBP3 = biological target: T1, E. coli K12 PBP3 (Escherichia coli, UniProt P0AD68); assay: biochemical; type: binding
T1 construct: made in house
Method in brief: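 Fluorescence polarization (ex 490/em 520 nm) competition of inhibitors against Bocillin-FL at 0.1 μM, read up to 60 min. Final PBP levels: E. coli PBP3 1.5 μM; A. baumannii PBP2 2.5 μM, PBP3 0.2 μM in Tris pH 8.0/NaCl/glycerol/Tween 20; N. gonorrhoeae PBP2 […] in Hepes pH 8.0/NaCl/glycerol. EC50 = concentration halving PBP-bound Bocillin-FL.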

[1] = tested on: N. gonorrhoeae ATCC 49226; assay: Liquid broth MIC in Fastidious broth; type: cell-based; conditions: Neisseria gonorrhoeae, ATCC49226; N. gonorrhoeae ATCC 49226; Fastidious broth; read-out: Minimum Inhibitory Concentration, ATCC 49226
Method in brief: (§1)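 Colonies were swabbed from chocolate agar after 24 h growth and standardised by optical density at 600 nm. Compounds were serially diluted twofold in Fastidious broth, and bacteria added to give 5×10^5 CFU/mL. After about 24 h at 36 °C in 5% CO2, the lowest concentration allowing under 10% growth was taken as MIC.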

N. gonorrhoeae FA1090 = assay: Liquid broth MIC in Fastidious broth; type: cell-based; conditions: Neisseria gonorrhoeae; N. gonorrhoeae FA1090; Fastidious broth; read-out: Minimum Inhibitory Concentration, FA1090
Method in brief: as §1

N. gonorrhoeae WHO K = assay: Liquid broth MIC in Fastidious broth; type: cell-based; conditions: Neisseria gonorrhoeae, read-out: Minimum Inhibitory Concentration, WHO K
Method in brief: (§2)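 Strains bearing mosaic PBP2 grown 24 h on chocolate agar (36° C, 5% CO2), suspended in saline and added to 2-fold compound dilutions in Fastidious broth at 5×10^5 CFU/mL. After ~24 hours at 36° C with 5% CO2, MIC taken visually as lowest well with <10% growth relative to full growth.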

N. gonorrhoeae WHO Z = assay: Liquid broth MIC in Fastidious broth; type: cell-based; conditions: Neisseria gonorrhoeae, read-out: Minimum Inhibitory Concentration, WHO Z
Method in brief: as §2

N. gonorrhoeae WHO G = assay: Liquid broth MIC in Fastidious broth; type: cell-based; conditions: Neisseria gonorrhoeae; N. gonorrhoeae WHO G; Fastidious broth; read-out: Minimum Inhibitory Concentration, WHO G
Method in brief: as §1

N. gonorrhoeae WHO L = assay: Liquid broth MIC in Fastidious broth; type: cell-based; conditions: Neisseria gonorrhoeae; N. gonorrhoeae WHO L; Fastidious broth; read-out: Minimum Inhibitory Concentration, WHO L
Method in brief: as §1

N. gonorrhoeae WHO Q = assay: Liquid broth MIC in Fastidious broth; type: cell-based; conditions: Neisseria gonorrhoeae, read-out: Minimum Inhibitory Concentration, WHO Q
Method in brief: as §2

N. gonorrhoeae H041 = assay: Liquid broth MIC in Fastidious broth; type: cell-based; conditions: Neisseria gonorrhoeae, H041, read-out: Minimum Inhibitory Concentration, H041
Method in brief: as §2

P. aeruginosa PBP3 = biological target: T2, P. aeruginosa PBP3 (Pseudomonas aeruginosa, UniProt G3XD46); assay: Bocillin-FL fluorescence polarization competition binding assay, P. aeruginosa PBP3; conditions: fluorescence polarization competition binding assay using Bocillin-FL
T2 construct: made in house
T2 sequence (G3XD46 whole entry): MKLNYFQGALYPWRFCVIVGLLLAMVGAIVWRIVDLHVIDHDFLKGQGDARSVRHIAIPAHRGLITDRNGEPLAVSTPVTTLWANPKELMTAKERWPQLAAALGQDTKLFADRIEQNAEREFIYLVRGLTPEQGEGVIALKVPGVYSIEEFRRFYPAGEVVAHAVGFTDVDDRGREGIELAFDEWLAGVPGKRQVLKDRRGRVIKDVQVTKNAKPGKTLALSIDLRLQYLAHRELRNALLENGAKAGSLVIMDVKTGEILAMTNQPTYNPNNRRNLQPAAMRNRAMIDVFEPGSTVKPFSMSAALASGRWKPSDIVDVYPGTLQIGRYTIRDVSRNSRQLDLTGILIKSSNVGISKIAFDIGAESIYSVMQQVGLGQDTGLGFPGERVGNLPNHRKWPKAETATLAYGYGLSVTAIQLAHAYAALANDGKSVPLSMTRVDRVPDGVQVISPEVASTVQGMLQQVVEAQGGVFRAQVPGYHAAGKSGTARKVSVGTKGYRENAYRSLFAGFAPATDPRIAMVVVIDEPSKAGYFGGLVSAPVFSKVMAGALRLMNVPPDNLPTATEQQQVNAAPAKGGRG
Method in brief: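 Binding of boronic acid inhibitors to purified Pseudomonas aeruginosa (PA01) PBP3 was measured by fluorescence polarization competition with Bocillin-FL, a fluorescent penicillin V. Reactions of 80 μl contained 0.75 μM PBP3 and 0.1 μM Bocillin-FL in 50 mM Hepes (pH 8.0), 300 mM NaCl and 5% (v/v) glycerol, in black 384-well plates. FP (Excitation 490 nm, Emission 520 nm) was read for up to 60 minutes. EC50 is the concentration that halves PBP-bound Bocillin-FL.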

T1 sequence (P0AD68 1-577): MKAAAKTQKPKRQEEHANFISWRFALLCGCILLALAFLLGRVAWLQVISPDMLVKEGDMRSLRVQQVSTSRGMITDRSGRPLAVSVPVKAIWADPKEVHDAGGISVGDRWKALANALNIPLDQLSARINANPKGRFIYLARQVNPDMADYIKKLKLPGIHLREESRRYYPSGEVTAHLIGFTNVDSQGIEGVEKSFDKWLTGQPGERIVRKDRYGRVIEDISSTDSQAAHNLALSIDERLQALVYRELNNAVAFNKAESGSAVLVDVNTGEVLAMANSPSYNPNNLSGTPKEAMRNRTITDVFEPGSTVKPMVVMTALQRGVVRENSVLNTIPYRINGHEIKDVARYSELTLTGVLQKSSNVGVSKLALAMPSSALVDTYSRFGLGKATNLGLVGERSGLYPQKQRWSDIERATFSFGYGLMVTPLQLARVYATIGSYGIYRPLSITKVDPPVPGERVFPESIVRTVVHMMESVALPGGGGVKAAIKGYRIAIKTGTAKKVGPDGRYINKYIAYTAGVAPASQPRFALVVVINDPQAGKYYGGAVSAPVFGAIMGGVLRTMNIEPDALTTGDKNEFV

SMILES | EC50 (E. coli K12 PBP3) | MIC [1] | MIC (N. gonorrhoeae FA1090) | MIC (N. gonorrhoeae WHO K) | MIC (N. gonorrhoeae WHO Z) | MIC (N. gonorrhoeae WHO G) | MIC (N. gonorrhoeae WHO L) | MIC (N. gonorrhoeae WHO Q) | MIC (N. gonorrhoeae H041) | P. aeruginosa PBP3 Potency (P. aeruginosa PBP3)
CCN1CCN(C(=O)NC(C(=O)N[C@H]2Cc3cccc(C(=O)O)c3OB2O)c2cc(C#N)c(O)cc2F)C(=O)C1=O (stereo partly drawn) [Example 209, (3R)-3-(2-(5-cyano-2-fluoro-4-hydroxyphenyl)-2-(4-ethyl-2,3-dioxopiperazine-1-carboxamido)acetamido)-2-hydroxy-3,4-dihydro-2H-benzo[e][1,2]oxaborinine-8-carboxylic acid] | < 30 µM | 4 to 8 µg/mL (≈ 7.05 to 14.1 µM) | 0.25 to 0.5 µg/mL (≈ 0.441 to 0.881 µM) | 16 to 32 µg/mL (≈ 28.2 to 56.4 µM) | 4 to 8 µg/mL (≈ 7.05 to 14.1 µM) | 4 to 8 µg/mL (≈ 7.05 to 14.1 µM) | 16 to 32 µg/mL (≈ 28.2 to 56.4 µM) | 16 to 32 µg/mL (≈ 28.2 to 56.4 µM) | 16 to 32 µg/mL (≈ 28.2 to 56.4 µM) | D (D represents a potency <10 μM)
CCN1CCN(C(=O)N[C@@H](C(=O)N[C@H]2Cc3ccc(F)c(C(=O)O)c3OB2O)c2ccc(O)c(O)c2)C(=O)C1=O [Example 211, (R)-3-((R)-2-(3,4-dihydroxyphenyl)-2-(4-ethyl-2,3-dioxopiperazine-1-carboxamido)acetamido)-7-fluoro-2-hydroxy-3,4-dihydro-2H-benzo[e][1,2]oxaborinine-8-carboxylic acid] | < 30 µM | 16 to 32 µg/mL (≈ 28.7 to 57.3 µM) | 4 to 8 µg/mL (≈ 7.16 to 14.3 µM) | 16 to 32 µg/mL (≈ 28.7 to 57.3 µM) | 16 to 32 µg/mL (≈ 28.7 to 57.3 µM) | 16 to 32 µg/mL (≈ 28.7 to 57.3 µM) | > 64 µg/mL | 16 to 32 µg/mL (≈ 28.7 to 57.3 µM) | 16 to 32 µg/mL (≈ 28.7 to 57.3 µM) | D (D represents a potency <10 μM)
O=C(O)c1cccc2c1OB(O)[C@@H](NC(=O)C(NC(=O)N1CCN(C3CNC3)C(=O)C1=O)c1c(F)cc(O)cc1F)C2 (stereo partly drawn) [Example 212, (3R)-3-(2-(4-(azetidin-3-yl)-2,3-dioxopiperazine-1-carboxamido)-2-(2,6-difluoro-4-hydroxyphenyl)acetamido)-2-hydroxy-3,4-dihydro-2H-benzo[e][1,2]oxaborinine-8-carboxylic acid] | < 30 µM | 16 to 32 µg/mL (≈ 27.2 to 54.5 µM) | 1 to 2 µg/mL (≈ 1.7 to 3.41 µM) | > 64 µg/mL | > 64 µg/mL | 16 to 32 µg/mL (≈ 27.2 to 54.5 µM) | > 64 µg/mL | > 64 µg/mL | > 64 µg/mL | D (D represents a potency <10 μM)
CCN1CCN(C(=O)NC(C(=O)N[C@H]2Cc3cccc(C(=O)O)c3OB2O)c2c(F)cc(NC(=O)NC)cc2F)C(=O)C1=O (stereo partly drawn) [Example 213, (3R)-3-(2-(2,6-difluoro-4-(3-methylureido)phenyl)-2-(4-ethyl-2,3-dioxopiperazine-1-carboxamido)acetamido)-2-hydroxy-3,4-dihydro-2H-benzo[e][1,2]oxaborinine-8-carboxylic acid] | < 30 µM | 4 to 8 µg/mL (≈ 6.49 to 13 µM) | < 0.125 µg/mL | > 64 µg/mL | 16 to 32 µg/mL (≈ 26 to 51.9 µM) | 1 to 2 µg/mL (≈ 1.62 to 3.24 µM) | > 64 µg/mL | > 64 µg/mL | > 64 µg/mL | D (D represents a potency <10 μM)
